The test system of one test is Musca domestica. Kind of test: Insecticidal activity against Musca domestica (house fly) after 24 hr. Format: functional.
A further test has as its system Rhyzopertha dominica. Briefly: Insecticidal activity against Rhyzopertha dominica after 24 hr. It is filed as functional.

Broadly, the LC50 is the concentration lethal to half of the exposed cells or organisms. A low value points to a more lethal substance.

Consider `C=CC(C#N)OC(C)=O` (stereo unspecified) [1-CYANOALLYL ACETATE], for which the median lethal concentration (LC50) in the test with Musca domestica was found to be 2.08 µM; with Rhyzopertha dominica, 2.96 µM.

As to `COP(=O)(OC)OC=C(Cl)Cl` [DICHLORVOS], the median lethal concentration (LC50) was determined as 0.05 µM with Musca domestica and 1.31 µM in the test with Rhyzopertha dominica.

As to `C=CC(C#N)OC` (stereo unspecified), the figures for the LC50 in the test with Musca domestica and in the test on Rhyzopertha dominica were 4.22 µM and 9.06 µM, respectively.

As for `C=CC(C#N)OC(=O)CC` (stereo unspecified) [1-CYANOALLYL PROPIONATE], the LC50 came out at 4.74 µM in the test on Musca domestica and 5.03 µM with Rhyzopertha dominica.

For `C=CC(C#N)OC(=O)C(C)(C)C` (stereo unspecified) [1-CYANOALLYL PIVALATE], the LC50 amounted to 8.19 µM with Musca domestica and 14.4 µM in the test on Rhyzopertha dominica.

In the case of `CC(O)(C#N)C1CC1` (stereo unspecified) [CYCLOPROPYLMETHYLKETONE CYANOHYDRIN], the median lethal concentration (LC50) was 1.35 µM in the test on Musca domestica and 3.6 µM in the test with Rhyzopertha dominica.

In the case of `CCC(C)(O)C#N` (stereo unspecified) [METHYLETHYL KETONE CYANOHYDRIN], the 50% lethal concentration (LC50) is 0.91 µM in the test with Musca domestica and 4.14 µM in the test with Rhyzopertha dominica.

For `N#CC(O)C1CC1` (stereo unspecified) [CYCLOPROPYLCARBOXALDEHYDE], the 50% lethal concentration (LC50) in the test with Musca domestica came to 1.54 µM; with Rhyzopertha dominica, 4.12 µM.

For the compound `C=CC(O)C#N` (stereo unspecified), the LC50 with Musca domestica was 0.67 µM; in the test on Rhyzopertha dominica, 4.45 µM.

Regarding `CC(C)(O)C#N` [DIMETHYLKETONE CYANOHYDRIN], the median lethal concentration (LC50) turned out to be 0.82 µM with Musca domestica and 4.7 µM in the test with Rhyzopertha dominica.

Regarding `C=CC(C)(O)C#N` (stereo unspecified) [METHYLVINYL KETONE CYANOHYDRIN], the LC50 was 2.27 µM in the test with Musca domestica and 9.47 µM with Rhyzopertha dominica.

On to `CC(O)(C#N)CF` (stereo unspecified), for which the 50% lethal concentration (LC50) amounted to 0.87 µM in the test with Musca domestica and 3.2 µM in the test on Rhyzopertha dominica.

Regarding `CC=C(Cl)Cl` [DICHLOROPROPENE], the median lethal concentration (LC50) with Musca domestica amounted to 8.11 µM; in the test with Rhyzopertha dominica, 49.3 µM.

Values taken from ChEMBL document CHEMBL3046119, “QSAR evaluation of cyanohydrins' fumigation toxicity to house fly (Musca domestica) and lesser grain borer (Rhyzopertha dominica)” (2002).
